Like-named read-outs stand apart in the source and are kept apart here.
What was measured:
PC-3 cells = assay: MTT cytotoxicity assay against PC-3 cells; conditions: read-out: IC50 (μM) ± SEM, 72 h
Experimental: For this purpose, PC-3 cells (Prostrate Cancer)/3T3(Mouse fibroblast) were cultured in Dulbecco's Modified Eagle's Medium, supplemented with 5% of foetal bovine serum (FBS), 100 IU/mL of penicillin and 100 μg/mL of streptomycin in 25 cm^3 flask and kept in 5% CO2 incubator at 37° C. Exponentially growing cells were harvested, counted with haemocytometer and diluted with a particular medium.
Subsequently, 100 μL of DMSO was added to each well. The extent of MTT reduction to formazan within cells was calculated by measuring the absorbance at 570 nm, using a microplate ELISA reader (Spectra Max plus, Molecular Devices, Calif., USA).

β-glucuronidase = target: T1, β-glucuronidase (UniProt A3KMY8); assay: β-Glucuronidase inhibition, spectrophotometric p-nitrophenyl-β-D-glucuronide assay; assay type: biochemical; conditions: for % Inhibition: test concentration not given
T1 sequence (A3KMY8 1-652): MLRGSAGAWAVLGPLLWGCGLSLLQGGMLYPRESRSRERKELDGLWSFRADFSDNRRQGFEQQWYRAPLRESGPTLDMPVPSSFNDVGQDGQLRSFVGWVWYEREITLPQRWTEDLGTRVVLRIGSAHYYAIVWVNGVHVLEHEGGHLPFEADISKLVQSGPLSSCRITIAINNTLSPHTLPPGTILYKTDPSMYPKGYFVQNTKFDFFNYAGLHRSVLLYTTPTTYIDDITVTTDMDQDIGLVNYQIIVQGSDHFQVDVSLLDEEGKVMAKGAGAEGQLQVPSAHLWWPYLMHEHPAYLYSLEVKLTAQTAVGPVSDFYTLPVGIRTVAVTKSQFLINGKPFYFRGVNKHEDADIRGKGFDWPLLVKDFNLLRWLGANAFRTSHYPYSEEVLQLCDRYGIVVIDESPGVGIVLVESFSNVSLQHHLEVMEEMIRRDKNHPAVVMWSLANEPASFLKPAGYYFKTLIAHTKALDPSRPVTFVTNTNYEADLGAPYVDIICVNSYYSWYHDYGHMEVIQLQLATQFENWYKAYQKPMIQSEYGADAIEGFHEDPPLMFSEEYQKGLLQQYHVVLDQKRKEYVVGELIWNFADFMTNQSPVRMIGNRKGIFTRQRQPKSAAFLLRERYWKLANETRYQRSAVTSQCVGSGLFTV
Experimental: The total reaction volume was 250 μL. […] The reaction mixture contained 185 μL of 0.1 M acetate buffer, 5 μL of test compound solution, 10 μL of (1U) enzyme solution was incubated at 37° C. for 30 min. […] All assays were run in triplicate. IC50 Values were calculated by using EZ-Fit software (Perrella Scientific Inc., Amherst, Mass., USA). These values are the mean of three independent assays.

[1] = read-out: IC50 (μM) ± SEM, mean of three independent assays

Row | SMILES | IC50 (PC-3 cells) [µM] | IC50 (β-glucuronidase; [1]) [µM] | % Inhibition (β-glucuronidase) [%] | IC50 (β-glucuronidase; unit inferred) [µM]
1 | O=c1[nH]c(-c2ccc(Cl)cc2Cl)nc2ccccc12 [Compound 17, 2-(2,4-Dichlorophenyl)quinazolin-4(3H)-one] | > 30 |  |  | 
2 | COc1ccc(-c2nc3ccccc3c(=O)[nH]2)cc1O [Compound 8, 2-[3-Hydroxy-4-(methyloxy)phenyl]quinazolin-4(3H)-one] | > 30 | 2.8 ± 0.042 | 84.0 | 
3 | O=c1[nH]c(-c2cccc([N+](=O)[O-])c2)nc2ccccc12 [Compound 21, 2-(3-Nitrophenyl)quinazolin-4(3H)-one] | > 30 | 50.4 ± 1.4 | 95.1 | 
4 | O=c1[nH]c(-c2ccccc2[N+](=O)[O-])nc2ccccc12 [Compound 20, 2-(2-Nitrophenyl)quinazolin-4(3H)-one] | > 30 |  |  | 
5 | COc1ccc(-c2nc3ccccc3c(=O)[nH]2)cc1 [Compound 10, 2-[4-(Methyloxy)phenyl]quinazolin-4(3H)-one] | > 30 | 1.1 ± 0.05 | 99.7 | 
6 | O=c1[nH]c(-c2ccc([N+](=O)[O-])cc2)nc2ccccc12 [Compound 22, 2-(4-Nitrophenyl)quinazolin-4(3H)-one] | > 30 | 20.1 ± 0.92 | 96.4 | 
7 | O=c1[nH]c(-c2c(O)cccc2Br)nc2ccccc12 [Compound 25, 2-(2-Bromo-6-hydroxyphenyl)quinazolin-4(3H)-one] | > 30 |  |  | 
8 | O=c1[nH]c(-c2ccccc2Cl)nc2ccccc12 [Compound 16, 2-(2-Chlorophenyl)quinazolin-4(3H)-one] | > 30 |  |  | 
9 | O=c1[nH]c(-c2cccc(O)c2)nc2ccccc12 [Compound 4, 2-(3-Hydroxyphenyl)quinazolin-4(3H )-one] | > 30 |  | 78.5 | 
10 | CCOc1cc(-c2nc3ccccc3c(=O)[nH]2)ccc1O [Compound 15, 2-[3-(Ethyloxy)-4-hydroxyphenyl]quinazolin-4(3H)-one] | > 30 |  |  | 
11 | COc1ccc(O)c(-c2nc3ccccc3c(=O)[nH]2)c1 [Compound 7, 2-[2-Hydroxy-5-(methyloxy)phenyl]quinazolin-4(3H)-one] | > 30 |  |  | 
12 | CCOc1ccccc1-c1nc2ccccc2c(=O)[nH]1 [Compound 14, 2-[2-(Ethyloxy)phenyl]quinazolin-4(3H)-one] | > 30 |  |  | 
13 | O=c1[nH]c(-c2ccc(O)cc2)nc2ccccc12 [Compound 3, 2-(4-Hydroxyphenyl)quinazolin-4(3H)-one] | > 30 | 22.2 ± 0.31 | 99.6 | 
14 | O=c1[nH]c(-c2ccc(O)c(O)c2)nc2ccccc12 [Compound 5, 2-(3,4-Dihydroxyphenyl)quinazolin-4(3H)-one] | > 30 |  |  | 
15 | Cc1ccc(-c2nc3ccccc3c(=O)[nH]2)cc1 [Compound 24, 2-(4-Methylphenyl)quinazolin-4(3H)-one] | > 30 |  | 96.3 | 
16 | COc1ccc(-c2nc3ccccc3c(=O)[nH]2)cc1OC [Compound 11, 2-[3,4-Bis(methyloxy)phenyl]quinazolin-4(3H)-one] | > 30 |  |  | 
17 | O=c1[nH]c(-c2cc(O)ccc2O)nc2ccccc12 [Compound 6, 2-(2,5-Dihydroxyphenyl)quinazolin-4(3H)-one] | > 30 |  |  | 
18 | CN(C)c1ccc(-c2nc3ccccc3c(=O)[nH]2)cc1 [Compound 23, 2-[4-(Dimethylamino)phenyl]quinazolin-4(3H)-one] | > 30 | 5.5 ± 0.1 | 99.6 | 
19 | O=c1[nH]c(-c2ccccc2O)nc2ccccc12 [Compound 2, 2-(2-Hydroxyphenyl)quinazolin-4(3H)-one] | > 30 | 10 ± 0.54 | 99.1 | 
20 | COc1cc(-c2nc3ccccc3c(=O)[nH]2)cc(OC)c1OC [Compound 12, 2-[3,4,5-Tris(methyloxy)phenyl]quinazolin-4(3H)-one] | > 30 |  | 97.6 | 120 ± 2.54
21 | O=c1[nH]c(-c2c(Cl)cccc2Cl)nc2ccccc12 [Compound 18, 2-(2,6-Dichlorophenyl)quinazolin-4(3H)-one] | > 30 |  |  | 
22 | O=c1[nH]c(-c2ccc(Cl)cc2)nc2ccccc12 [Compound 19, 2-(4-Chlorophenyl)quinazolin-4(3H)-one] | > 30 |  |  | 
23 | CCOc1ccc(-c2nc3ccccc3c(=O)[nH]2)cc1 [Compound 13, 2-[4-(Ethyloxy)phenyl]quinazolin-4(3H)-one] | > 30 |  |  | 

— US20140256754A1, “QUINAZOLINES AS B-GLUCURONIDASE NOVEL INHIBITORS” (priority 2013, published 2014)
